Data taken from patent publication US9304125B2, “Devices and methods for observing the cell division” (CENTRE NATIONAL DE LA RECHERCHE SCIENTIFIQUE, priority 2009, dated 2016).
“Also recorded” adds a separate entry of the source.

System: cytokinetic ring
Test: Cytokinetic ring closure of fission yeast in egg-cup wells, observed by fluorescence microscopy (rlc1-mCherry)
Assay type: cell-based, Schizosaccharomyces pombe
Settings: latrunculin A 2 μM; FIG. 5B
Procedure: Here, they illustrate results with the myosin light chain encoded by rcl1 gene fused to mCherry.
The inventors incubated the cells with latrunculin A (2 μM), a drug known to bind monomeric actin and therefore preventing its polymerisation (Ayscough, 1998).
Standard methods were used for cell growth (Moreno et al., 1991). Briefly, cells were growing exponentially in EMM4S (Moreno et al., 1991), and experiments were conducted using the same medium in the chamber.
S. pombe strains successfully used in this study were the following: • JM 207 h+ rlc1 mcherry::natR ura- leu- ade-, J. Moseley • JW 1110 h+ kanMX6-Pmyo2-mYFP-myo2 ade6-M210 leu1-32 ura4-D18, J.-Q. Wu (Wu and Pollard, 2005) • PPG 5054, h+ leu1-32 ura4-D18 pax::KanMX6 leu1+::GFPpax+, Pilar Perez Lab (Pinar et al., 2008). • JW 977 h+ cdc15-mYFP-kanMX6 ade6-M210 leu1-32 ura4-D18, J.-Q. Wu (Wu and Pollard, 2005) • 519 h− bgs1Δ::ura4^+ Pbgs1^+::GFP-bgs1^+:leu1^+ leu1-32 ura4-Δ18 his3-Δ1, Pilar Perez (Cortes et al., 2002)
Cells were grown in exponential phase at 32° C. At about 0.5 optical density, the EMM4S medium was removed twice by centrifugation at 1000 g for 2 min followed by cells resuspension in a EMM-N medium (Moreno et al., 1991): cells were nitrogen starved at 32° C. for 5 hours. Cells were then pelleted with a 2 min centrifugation at 1000 g and they were resuspended in EMM4S. The egg cup surface (face up) was carefully placed on the top of a home-made plastic holder deposited in a 50 ml tube (adapted from the set-up used by (Allen et al., 2007)); 13 ml of EMM4S was poured in the tube. Cells were exposed to sonication 30 s (Branson 200, Ultrasonic Cleaner) to separate aggregated cells, and 1 ml of cell suspension was added to the 50 ml tube. Cells were then centrifuged at 500 g for 2 mn on the egg-cup surface resting on the special plastic holder. The egg cup surface was carefully removed from the holder and it was inserted in a home-made chamber (see FIG. 2D). The sample preparation was achieved by screwing a top metal piece onto the surface holder. […]

SMILES: C/C1=C/C(=O)O[C@@H]2C[C@@H](CC[C@H](C)/C=C\C=C\CC1)O[C@@](O)([C@@H]1CSC(=O)N1)C2 [latrunculin A]
- closure of the cytokinetic ring: the closure was stopped
- cytokinetic ring integrity: the ring disassembled, and this led to the clustering of myosin into discrete patches; also recorded: disrupts the ring
